This is an account of results in patent US10703746B2, “Mutant IDH1 inhibitors useful for treating cancer” (THE UNITED STATES OF AMERICA, AS REPRESENTED BY THE …, priority 2014, dated 2020).

One experiment has as its target IDH1 R132C (Homo sapiens, UniProt O75874, R132C). Put plainly: IDH1 R132C enzymatic assay (NADPH depletion coupled to diaphorase/resazurin). In kind it is biochemical. As to conditions: IDH1 R132C enzymatic inhibition, IC50 class. As to the method: (§1) Assays were conducted in a 1536-well black solid-bottom plate with a final assay volume of 9 μL.
For IDH1 R132C, 3 μL of enzyme (0.00032 mg/mL IDH1 […], 10% glycerol, 50 mM potassium phosphate pH 6.5, 5 mM MgCl2, 0.03% BSA) were added to the plate, followed by the addition of 23 nL of test compound in DMSO. The plate was lidded and incubated at room temperature for 30 minutes at which time 3 μL of substrate were added (0.012 mM NADPH, 0.6 mM α-KG, 10% glycerol, 50 mM potassium phosphate pH 6.5, 5 mM MgCl2, 0.03% BSA). […]

In another experiment the target is IDH1 R132H (Homo sapiens, UniProt O75874, R132H). Put plainly: IDH1 R132H enzymatic assay (NADPH depletion coupled to diaphorase/resazurin). The format is biochemical. As to conditions: IDH1 R132H enzymatic inhibition, IC50 class. As to the method: as §1
IDH1 R132H, sequence (O75874 whole entry R132H): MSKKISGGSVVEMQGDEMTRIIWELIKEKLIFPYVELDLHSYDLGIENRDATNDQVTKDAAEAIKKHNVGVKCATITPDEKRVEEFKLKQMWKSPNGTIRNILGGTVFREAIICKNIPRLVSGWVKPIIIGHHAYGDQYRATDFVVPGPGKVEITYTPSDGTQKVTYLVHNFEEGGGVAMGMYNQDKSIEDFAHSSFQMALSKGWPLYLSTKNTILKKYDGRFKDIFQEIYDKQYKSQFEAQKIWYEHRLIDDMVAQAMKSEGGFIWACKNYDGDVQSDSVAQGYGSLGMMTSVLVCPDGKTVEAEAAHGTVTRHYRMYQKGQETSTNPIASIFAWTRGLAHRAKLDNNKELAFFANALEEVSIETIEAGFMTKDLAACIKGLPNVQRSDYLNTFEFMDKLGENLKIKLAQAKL
Specifically, for IDH1 R132H, 3 μL of enzyme (4 mM β-ME, 0.0005 mg/mL IDH1 R132H, 150 mM NaCl, 20 mM Tris pH 7.5, 10 mM MgCl2, 0.05% BSA) were added to the plate, followed by the addition of 23 nL of test compound in DMSO. The plate was lidded and incubated at room temperature for 30 minutes at which time 3 μL of substrate were added (0.016 mM NADPH, 2 mM α-KG, 150 mM NaCl, 20 mM Tris pH 7.5, 10 mM MgCl2, 0.05% BSA). This reaction was incubated at room-temperature for 60 minutes at which time the detection mix was added (0.06 mg/mL diaphorase, 0.036 mM resazurin, 150 mM NaCl, 20 mM Tris pH 7.5, 10 mM MgCl2, 0.05% BSA). […]
A general note: Resazurin is reduced to fluorescent resorufin, in cell work by metabolically active cells.

IDH1 R132C, sequence (O75874 whole entry R132C): as the sequence (O75874 whole entry R132H) above, with H132C counted along it

Turning to `CCc1cccc(CC)c1-n1c(CC(C)C)c(C(=O)N[C@@H](CO)c2ccccc2)cc(-c2nc(-c3ccc(Cl)cc3)cs2)c1=O` [Compound 20], the IC50 (commonly the concentration that inhibits the measured activity by half) is less than 300 nM on IDH1 R132C and 300 to 1000 nM on IDH1 R132H.
For `CCc1cccc(CC)c1-n1c(C)c(C(=O)N2CCN[C@@H](C(=O)O)C2)cc(-c2nc(-c3ccc(Cl)cc3)cs2)c1=O` [Compound 21], in that order: 1000 to 5000 nM and 300 to 1000 nM.
Taken in the same sequence, the figures for `Cc1ccccc1-n1c2c(cc(-c3nc(-c4ccc(Cl)cc4)cs3)c1=O)C(=O)CC(C)(C)C2` [Compound 22] were 300 to 1000 nM and 1000 to 5000 nM.
Taken in the same sequence, the figures for `COc1ccc(OC)c(-n2c3c(cc(-c4nc(-c5ccc(Cl)cc5)cs4)c2=O)C(=O)N(C(=O)OC(C)(C)C)CC3)c1` [Compound 23] were 5000 to 20000 nM and more than 20000 nM.
`COc1ccc(OC)c(-n2c3c(cc(-c4nc(-c5ccc(Cl)cc5)cs4)c2=O)C(=O)CC3)c1` [Compound 24]: the results for the IC50 against IDH1 R132C and against IDH1 R132H were 5000 to 20000 nM and more than 20000 nM, respectively.
For `CC1(C)CC(=O)c2cc(-c3nc(-c4ccc(Cl)cc4)cs3)c(=O)n(-c3ccccc3OC3CC3)c2C1` [Compound 25], in that order: 300 to 1000 nM and 1000 to 5000 nM.
For `Cc1ccc(N)cc1-n1c2c(cc(-c3nc(-c4ccc(Cl)cc4)cs3)c1=O)C(=O)CC(C)(C)C2` [Compound 26], in that order: 1000 to 5000 nM and 1000 to 5000 nM.
For `COc1ccc(C(=O)O)cc1-n1c2c(cc(-c3nc(-c4ccc(Cl)cc4)cs3)c1=O)C(=O)CC(C)(C)C2` [Compound 27], in that order: 5000 to 20000 nM and 5000 to 20000 nM.
For `CCc1cccc(CC)c1-n1c(C(C)C)c(C(=O)N2CCN[C@@H](C(=O)O)C2)cc(-c2nc(-c3ccc(Cl)cc3)cs2)c1=O` [Compound 28], the IC50 against IDH1 R132C and at IDH1 R132H was less than 300 nM throughout.
For the molecule `CCc1cccc(CC)c1-n1c(CC(C)C)c(C(=O)NC[C@@H](NC(C)=O)C(=O)O)cc(-c2nc(-c3ccc(Cl)cc3)cs2)c1=O` [Compound 29], the half-inhibitory concentration (IC50) against IDH1 R132C and against IDH1 R132H was 1000 to 5000 nM throughout.
Consider `CC1(C)CC(=O)c2cc(-c3nc(-c4ccc(F)cc4)cs3)c(=O)n(-c3ccccc3C(F)(F)F)c2C1` [Compound 30], for which the 50% inhibitory concentration (IC50) at IDH1 R132C and against IDH1 R132H was 300 to 1000 nM in each case.
For `CCc1cccc(CC)c1-n1c(C(C)C)c(C(=O)N2CCNC(C(=O)OC)C2)cc(-c2nc(-c3ccc(Cl)cc3)cs2)c1=O` (centres unmarked) [Compound 31], the half-maximal inhibitory concentration (IC50) against IDH1 R132C was 300 to 1000 nM; at IDH1 R132H it was 1000 to 5000 nM.
In the case of `CCc1cccc(CC)c1-n1c(C(C)C)c(C(=O)NC)cc(-c2nc(-c3ccc(Cl)cc3)cs2)c1=O` [Compound 32], the half-maximal inhibitory concentration (IC50) against IDH1 R132C and against IDH1 R132H was 300 to 1000 nM in each case.
Consider `CCc1cccc(CC)c1-n1c(CC(C)C)c(C(=O)NC)cc(-c2nc(-c3ccc(Cl)cc3)cs2)c1=O` [Compound 33], for which the figures for the 50% inhibitory concentration (IC50) against IDH1 R132C and against IDH1 R132H were less than 300 nM and 300 to 1000 nM, respectively.
Take `CCc1cccc(CC)c1-n1c(CC(C)C)c(C(=O)N2CCCC(CO)C2)cc(-c2nc(-c3ccc(Cl)cc3)cs2)c1=O` (centres unmarked) [Compound 34]: the 50% inhibitory concentration (IC50) on IDH1 R132C is 300 to 1000 nM; at IDH1 R132H, 1000 to 5000 nM.
For `CCc1cccc(CC)c1-n1c(C(C)C)c(C(=O)NC2CCNCC2)cc(-c2nc(-c3ccc(Cl)cc3)cs2)c1=O` [Compound 35], in that order: 1000 to 5000 nM and 1000 to 5000 nM.
For `CCc1cccc(CC)c1-n1c(C)c(C(=O)N2CCC(C(=O)O)C2)cc(-c2nc(-c3ccc(Cl)cc3)cs2)c1=O` (centres unmarked) [Compound 36], in that order: more than 20000 nM and more than 20000 nM.
`CCc1cccc(CC)c1-n1c(C(C)C)c(C(=O)N2CCNC[C@H]2C)cc(-c2nc(-c3ccc(Cl)cc3)cs2)c1=O` [Compound 37]: the IC50 against IDH1 R132C was 300 to 1000 nM; against IDH1 R132H it was 1000 to 5000 nM.
In the case of `CCc1cccc(CC)c1-n1c(C)c(C(=O)N2CCN[C@@H](C)C2)cc(-c2nc(-c3ccc(Cl)cc3)cs2)c1=O` [Compound 38], the IC50 against IDH1 R132C was 300 to 1000 nM; on IDH1 R132H it was less than 300 nM.
As to `CCc1cccc(CC)c1-n1c(CC(C)C)c(C(=O)N2CCNCC2)cc(-c2nc(-c3ccc(OCc4ccccc4)cc3)c(C)s2)c1=O` [Compound 39], the IC50 against IDH1 R132C and at IDH1 R132H was 5000 to 20000 nM throughout.
In the case of `CCc1cccc(CC)c1-n1c(C)c(C(=O)N2CCN[C@H](C(=O)OC)C2)cc(-c2nc(-c3ccc(Cl)cc3)cs2)c1=O` [Compound 41], the figures for the concentration for half-maximal inhibition (IC50) against IDH1 R132C and against IDH1 R132H were 1000 to 5000 nM and 5000 to 20000 nM, respectively.
For `CNc1ccccc1-n1c2c(cc(-c3nc(-c4ccc(Cl)cc4)cs3)c1=O)C(=O)CC(C)(C)C2` [Compound 42], in that order: 1000 to 5000 nM and 1000 to 5000 nM.
For `CCc1cccc(CC)c1-n1c(CC(C)C)c(C(=O)N2CCNCC2C)cc(-c2nc(-c3ccc(Cl)cc3)cs2)c1=O` (centres unmarked) [Compound 43], in that order: less than 300 nM and 300 to 1000 nM.
`CCCCc1ccc(-c2nc(-c3cc(C(=O)N4CCNCC4)c(CC(C)C)n(-c4c(CC)cccc4CC)c3=O)sc2C)cc1` [Compound 44]: the half-inhibitory concentration (IC50) at IDH1 R132C and against IDH1 R132H was 1000 to 5000 nM each time.
Regarding `COc1cccc(C(=O)O)c1-n1c2c(cc(-c3nc(-c4ccc(Cl)cc4)cs3)c1=O)C(=O)CC(C)(C)C2` [Compound 46], the IC50 against IDH1 R132C and at IDH1 R132H was 1000 to 5000 nM in each case.
`CCc1cccc(CC)c1-n1c(C(C)C)c(C(=O)N[C@H](C)CO)cc(-c2nc(-c3ccc(Cl)cc3)cs2)c1=O` [Compound 47]: the IC50 against IDH1 R132C and against IDH1 R132H was 1000 to 5000 nM throughout.
As to `CCc1cccc(CC)c1-n1c(CC(C)C)c(C(=O)N2CCNC(C(N)=O)C2)cc(-c2nc(-c3ccc(Cl)cc3)cs2)c1=O` (centres unmarked) [Compound 48], the 50% inhibitory concentration (IC50) against IDH1 R132C is less than 300 nM; on IDH1 R132H it was 300 to 1000 nM.
Regarding `CC1(C)CC(=O)c2cc(-c3nc(-c4ccc(Cl)cc4)cs3)c(=O)n(-c3ccccc3Oc3ccccc3)c2C1` [Compound 49], the half-inhibitory concentration (IC50) on IDH1 R132C and on IDH1 R132H was less than 300 nM throughout.
As for `CC1(C)CC(=O)c2cc(-c3nc(-c4ccc(Cl)cc4)cs3)c(=O)n(-c3ccccc3C3CC3)c2C1` [Compound 50], the IC50 against IDH1 R132C and against IDH1 R132H was 300 to 1000 nM in each case.
For `CC(C)Sc1ccccc1-n1c2c(cc(-c3nc(-c4ccc(Cl)cc4)cs3)c1=O)C(=O)CC(C)(C)C2` [Compound 51], the IC50 at IDH1 R132C is 1000 to 5000 nM; against IDH1 R132H, more than 20000 nM.
Taken in the same sequence, the figures for `COc1cccc(C)c1-n1c2c(cc(-c3nc(-c4ccc(Cl)cc4)cs3)c1=O)C(=O)CC(C)(C)C2` [Compound 52] were 1000 to 5000 nM and 1000 to 5000 nM.
Taken in the same sequence, the figures for `CCc1cccc(CC)c1-n1c(C)c(C(=O)N2CCN(C)CC2)cc(-c2nc(-c3ccc(Cl)cc3)cs2)c1=O` [Compound 53] were 300 to 1000 nM and 1000 to 5000 nM.
Consider `CCc1cccc(CC)c1-n1c(CC(C)C)c(C(=O)NC(C)(C)CO)cc(-c2nc(-c3ccc(Cl)cc3)cs2)c1=O` [Compound 54], for which the IC50 on IDH1 R132C and on IDH1 R132H was 300 to 1000 nM throughout.
`CC(C)n1c2c(cc(-c3nc(-c4ccc(Cl)cc4)cs3)c1=O)C(=O)CC(C)(C)C2` [Compound 55]: the IC50 is 1000 to 5000 nM against IDH1 R132C and more than 20000 nM at IDH1 R132H.
As to `CN(C)c1ccccc1-n1c2c(cc(-c3nc(-c4ccc(Cl)cc4)cs3)c1=O)C(=O)CC(C)(C)C2` [Compound 56], the 50% inhibitory concentration (IC50) against IDH1 R132C and at IDH1 R132H was 300 to 1000 nM throughout.
Take `CC1(C)CC(=O)c2cc(-c3nc(-c4ccc(Cl)cc4)cs3)c(=O)n(-c3ccccc3C(F)(F)F)c2C1` [Compound 57]: the values for the 50% inhibitory concentration (IC50) on IDH1 R132C and at IDH1 R132H were less than 300 nM and 300 to 1000 nM, respectively.
For `CCc1cccc(C(=O)O)c1-n1c2c(cc(-c3nc(-c4ccc(Cl)cc4)cs3)c1=O)C(=O)CC(C)(C)C2` [Compound 58], in that order: 1000 to 5000 nM and 300 to 1000 nM.
As to `COc1cccc(OC)c1-n1c2c(cc(-c3nc(-c4ccc(Cl)cc4)cs3)c1=O)C(=O)CC(C)(C)C2` [Compound 59], the concentration for half-maximal inhibition (IC50) at IDH1 R132C and against IDH1 R132H was 1000 to 5000 nM throughout.
`CCc1cccc(CC)c1-n1c(C)c(C(=O)N2CCN[C@H](C(=O)O)C2)cc(-c2nc(-c3ccc(Cl)cc3)cs2)c1=O` [Compound 60]: the half-inhibitory concentration (IC50) at IDH1 R132C and on IDH1 R132H was 300 to 1000 nM throughout.
For the molecule `CCc1cccc(CC)c1-n1c(CC(C)C)c(C(=O)N2[C@H](C)CNC[C@@H]2C)cc(-c2nc(-c3ccc(Cl)cc3)cs2)c1=O` [Compound 61], the IC50 against IDH1 R132C is less than 300 nM; against IDH1 R132H it was 300 to 1000 nM.
`COc1ccc(OC)c(-n2c(C)ccc(-c3nc(-c4ccc(Cl)cc4)cs3)c2=O)c1` [Compound 62]: the half-maximal inhibitory concentration (IC50) on IDH1 R132C was 5000 to 20000 nM; against IDH1 R132H it was more than 20000 nM.
For `CCc1cccc(CC)c1-n1c(CC(C)C)c(C(=O)N2CC(O)C2)cc(-c2nc(-c3ccc(Cl)cc3)cs2)c1=O` [Compound 63], in that order: 300 to 1000 nM and 1000 to 5000 nM.
Regarding `CCc1cccc(CC)c1-n1c(CC(C)C)c(C(=O)N[C@H](C)CO)cc(-c2nc(-c3ccc(Cl)cc3)cs2)c1=O` [Compound 64], the IC50 lay within 300 to 1000 nM on IDH1 R132C and 1000 to 5000 nM against IDH1 R132H.
